Here are results for 23 molecules from paper PMC8480759, “Inhibitors of histone deacetylase 6 based on a novel 3-hydroxy-isoxazole zinc binding group” (Journal of Enzyme Inhibition and Medicinal Chemistry, 2021).

The pIC50 is the negative decadic logarithm of the IC50, by convention in mol/L. As usually defined, the melting point is the temperature, or range, at which the solid turns liquid.

pIC50: −log10 of the molar value.

Data set [1] concerns the target T1, HDAC6 (Homo sapiens, UniProt Q9UBN7).
T1 sequence (Q9UBN7 1-1215): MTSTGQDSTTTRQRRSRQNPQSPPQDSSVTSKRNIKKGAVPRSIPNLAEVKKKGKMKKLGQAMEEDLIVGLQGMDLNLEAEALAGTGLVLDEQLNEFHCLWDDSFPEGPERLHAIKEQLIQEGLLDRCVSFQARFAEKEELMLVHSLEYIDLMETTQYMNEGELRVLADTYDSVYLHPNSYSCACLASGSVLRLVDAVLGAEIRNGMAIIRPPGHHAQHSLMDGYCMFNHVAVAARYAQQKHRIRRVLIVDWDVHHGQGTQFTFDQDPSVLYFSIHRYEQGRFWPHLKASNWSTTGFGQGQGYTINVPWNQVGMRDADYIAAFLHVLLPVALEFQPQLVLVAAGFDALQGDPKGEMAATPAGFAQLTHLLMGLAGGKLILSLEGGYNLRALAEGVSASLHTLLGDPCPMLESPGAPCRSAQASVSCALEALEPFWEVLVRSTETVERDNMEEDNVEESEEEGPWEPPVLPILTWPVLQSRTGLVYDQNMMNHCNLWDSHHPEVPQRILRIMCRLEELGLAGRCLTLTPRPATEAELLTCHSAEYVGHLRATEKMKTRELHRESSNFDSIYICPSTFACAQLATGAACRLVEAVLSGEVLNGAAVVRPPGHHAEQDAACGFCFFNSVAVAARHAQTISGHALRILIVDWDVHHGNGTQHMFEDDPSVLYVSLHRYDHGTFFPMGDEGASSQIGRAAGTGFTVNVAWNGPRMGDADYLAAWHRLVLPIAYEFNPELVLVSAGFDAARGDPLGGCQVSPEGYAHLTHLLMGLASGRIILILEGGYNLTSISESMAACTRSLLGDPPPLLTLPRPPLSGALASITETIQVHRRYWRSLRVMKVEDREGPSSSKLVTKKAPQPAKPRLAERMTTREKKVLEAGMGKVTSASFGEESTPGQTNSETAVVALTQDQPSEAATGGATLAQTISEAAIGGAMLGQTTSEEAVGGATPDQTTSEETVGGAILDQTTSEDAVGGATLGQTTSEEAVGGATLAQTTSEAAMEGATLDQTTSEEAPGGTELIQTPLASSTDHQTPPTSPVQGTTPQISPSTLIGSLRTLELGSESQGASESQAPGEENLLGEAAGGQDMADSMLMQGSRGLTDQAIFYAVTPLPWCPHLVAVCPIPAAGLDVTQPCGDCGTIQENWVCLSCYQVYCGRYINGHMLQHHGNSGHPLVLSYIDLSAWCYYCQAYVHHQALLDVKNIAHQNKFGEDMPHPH
Kind of data set: In vitro HDAC6 fluorogenic enzymatic assay. In kind it is biochemical. More on the design: purchased BPS Bioscience #50076 (Fluorogenic Assay Kit). Conditions: for pIC50: recombinant human HDAC6, dose-response 300 µM to 135 nM; for HDAC6 activity at the highest tested concentration: 300 µM, remaining enzyme activity, called inactive.

For data set [2], the system named is HDAC6. More on the design: method as in ChEMBL (accessed on May 29th, 2020). Conditions: ChEMBL ligands most similar to compound 13; ref ChEMBL (accessed on May 29th, 2020); cited from earlier work.
The nature of data set [3]: Storage stability at solid state. It counts as physicochemical. The note with it: room temperature and −20 °C. The text has this: In a recent study, we described the effect of different linker chemotypes on the potency and selectivity of a series of HDACi carrying a hydroxamate ZBG[6]. […] Being constituted by a small heteroaromatic ring with hydrogen bond acceptor and donor atoms, we hypothesised that the 3-hydroxy-isoxazole moiety could satisfy the pharmacophore requirements necessary for the coordination of the catalytic zinc ion of HDAC6. Therefore, in this work we investigated a series of 3-hydroxy-isoxazole derivatives bearing different aromatic or heteroaromatic linkers and various cap groups.

The target of data set [4] is T1, HDAC6. Kind of data set: HDAC6 assay with acetylated p53 peptide (residues 379–382, RHKKAc-AMC) as substrate. In kind it is biochemical.
Data set [5] has as its system acetylation levels of histone H3 (HDAC1 target) in DU145 cells. Kind of data set: Western blot of histone H3 acetylation in DU145 cells. Conditions: 24 h, 10 µM. In kind it is cell-based, human. As for the experimental part: (§1) The results corroborate the inhibitory activity of 17, 23, 25 and 27 at concentrations lower than 10 µM. […] HDACs contribution to CRPC is known[20] and the possibility to arrest CRPC proliferation by acting on HDAC targets is expanding in the scientific literature[21]^,[22]. After administration of the selected compounds for 24 h at 10 µM concentration, the effect on the acetylation levels of histone H3 and α-tubulin (respectively, HDAC1 and HDAC6 targets) was investigated. […] Lastly, in the same cell line, the anti-proliferative effect was measured in dose and time dependent manner (Figure S4).
Figure S3. Western blotting analysis of the tested and reference compounds SAHA and Tubastatin A on acetylation levels of histone H3 and α-tubulin in DU145 cells. GAPDH and H4 were used as a loading control. Densitometric values were analyzed using ImageJ Software and are reported on the top of bands as the ratio between loading control and acetylated target.
(1 picture or pasted object on this page, not shown here) […]
1.4 Western blot analysis
The prostate cancer cell line DU145 (ATCC) was grown in RPMI medium (Euroclone, Milan, Italy) with 10% fetal bovine serum (Euroclone), 2 mM L-glutamine (Euroclone), and antibiotics (100 U/mL penicillin, […] streptomycin) (Euroclone). Cells were stimulated with drugs for […]
Total Protein Extraction and western blot
After the induction with the test compounds at the indicated times and concentrations, DU145 cells were then harvested, washed with phosphate-buffered saline (PBS) (Euroclone), and lysed for 15 min at 4 °C in lysis extraction buffer with protease and phosphatase inhibitors (50 mM Tris -HCl pH 8.0, 150 mM NaCl, 1% NP40, 10 mM sodium fluoride, 0.1 mM sodium orthovanadate, […] phenylmethylsulfonyl fluoride 58 (PMSF), 20 g/mL aprotinin, […] leupeptin, […] antipain, 10 mM p -nitrophenyl phosphate, […] pepstatin A and 20 nM okada ic acid). Cells were vortexed then centrifuged at 13000 rpm for 30 min at 4 °C. Bradford assay (Biorad, Italy) was used to quantify protein concentration. […] The immune complexes were first detected with horseradish peroxidase-conjugated species-specific secondary antiserum (Bio-Rad Laboratories, Milan, Italy), and then by an enhanced chemiluminescence reaction (Bio-Rad Laboratories, Milan, Italy). […]
were harvested and washed twice with cold 1× PBS and lysed in Triton extraction buffer (TEB; PBS containing 0.5% Triton X 100 (v/v), 2 mM PMSF, and 0.02% (w/v) NaN3) for 10 min on ice, with gentle stirring. […] The samples were then centrifuged at 2000 rpm for 10 min at 4 °C; the concentration of protein in the supernatant was determined […]
using a Bradford assay (Bio-Rad, CA, USA). […] Semi-quantitative analysis was performed using ImageJ software. […]
On the technique in general: A western blot detects proteins with antibodies after separation by electrophoresis.

The subject of the next data set is DU145 cells. Kind of data set: Anti-proliferative assay (MTT cell viability). It counts as cell-based, human. The note with it: for effect on proliferation rate of DU145 cells: 50 µM, MTT, 24, 48, 72 h. As for the experimental part:
as §1
Figure S4. Cell viability assay (MTT) of the tested compounds in human prostate cancer cell lines (DU145). Cells were treated with 4 increasing concentrations (1, 5, 10, and 50 µM) of tested compounds, monitored at 24, 48, and 72 hours and tested with SAHA and Tubastatin A as reference compounds. Data are expressed as mean ± SEM. […]
1.5 Anti-proliferative assay
Cell viability was determined on DU145 cell line using Thiazolyl Blue Tetrazolium Bromide [3-(4,5-dimethylthiazol-2-yl)-2,5-diphenyltetrazolium bromide] (MTT; Sigma-Aldrich) assay after treatment with new compounds at indicated concentrations. A total of 2 × 10^4 cells/well were plated in a 96-well plate and treated, in duplicates, with new compounds at different concentrations for 24, 48, and 72 hours. Absorbance was read at a wavelength of 570 nm with a TECAN M-200 reader (Tecan, Männedorf, Switzerland).

`Oc1cc(-c2ccco2)on1` [Compound 26]: the negative logarithm of the IC50 (pIC50) on HDAC6 [1] is less than 4.00. In the case of `O=C(NO)c1ccccc1` [CHEMBL16300], the pIC50 in the data set on HDAC6 [2] is 6.94.

`O=C(C#Cc1ccccc1)NO` [Compound 12, N-hydroxy-3-phenyl-propiolamide] showed a melting point of 174 to 176 °C. Besides, the stability on storage result in data set [3] is listed as “converted into 13 over time”. On to `Oc1cc(-c2ccc(Br)o2)on1` [Compound 21], for which, at HDAC6 [1], the pIC50 was 4.53.

In the case of `CNc1ccc(C(=O)NO)cc1` [CHEMBL3415449], in the data set on HDAC6 [2], the pIC50 is 5.75.

`O=C(NO)C1=CCCCC1` [CHEMBL2333344]: the pIC50 in the data set with HDAC6 [2] is 7.92. In the case of `O=[N+]([O-])c1ccc(-c2cc(O)no2)cc1` [Compound 18], the pIC50 at HDAC6 [1] is 4.79.

On to `O=C(NO)C1=CCCC1` [CHEMBL2333346], for which the pIC50 in the data set on HDAC6 [2] was 7.52. Turning to `O=C(NO)C1CCCCC1` [CHEMBL2333345], in the data set with HDAC6 [2], the pIC50 was 6.42. With `Oc1cc(-c2ccc(OCc3ccccc3)cc2)on1` [Compound 17], on HDAC6 [4], the “concentration showing inhibitory activity on HDAC6” value is “below 10 µM”. For the same molecule, in data set [5], the “effect on acetylation levels of histone H3” value is recorded as “no effect”. Also, in the data set with DU145 cells, the “effect on proliferation rate of DU145 cells” value is reported as “reduced the proliferation rate”. Also, the pIC50 on HDAC6 [1] is 5.89. Regarding `Oc1cc(-c2cccc(C(F)(F)F)c2)on1` [Compound 14], the pIC50 at HDAC6 [1] was less than 3.52. `Oc1cc(-c2ccc3ccccc3c2)on1` [Compound 19]: on HDAC6 [1], the “HDAC6 activity at the highest tested concentration” value (shortened to “HDAC6 activity”) is recorded as “more than 55%” and the negative logarithm of the IC50 (pIC50) is less than 3.52. With `Oc1cc(-c2ccc(OCc3ccc(Cl)c(Cl)c3)cc2)on1` [Compound 27], the “concentration showing inhibitory activity on HDAC6” value on HDAC6 [4] is “below 10 µM”. Moreover, in data set [5], the “effect on acetylation levels of histone H3” value is “no effect”. Besides, the “effect on proliferation rate of DU145 cells” value with DU145 cells is “reduced the proliferation rate”. The “anti-proliferative activity at the lowest concentrations” value in the data set with DU145 cells (DU145, late phases, lowest concentrations (tested 1, 5, 10, 50 µM)) is on record as “exerted anti-proliferative activity”. At HDAC6 [1], the pIC50 is 5.09. For `Cc1cccc(C(=O)NO)c1` [CHEMBL2381522], the negative-log IC50 (pIC50) in the data set with HDAC6 [2] is 6.19.

Take `O=C(O)c1cc(-c2ccccc2)on1` [Compound 29, 5-phenylisoxazole-3-carboxylic acid]: at HDAC6 [1], the “HDAC6 activity” value is listed as “more than 55%” and the pIC50 was less than 3.52. Also, the “HDAC6 inhibition (in words)” value at HDAC6 [1] (in vitro assays, Table 1) is “inactive”. Turning to `Oc1cc(-c2ccccc2Cl)on1` [Compound 15], the pIC50 on HDAC6 [1] is less than 3.52.

On to `O=c1cc(-c2ccccc2)o[nH]1` [Compound 13, 3-hydroxy-5-phenyl-isoxazole], for which, in data set [3], the stability on storage result was “stable”. Moreover, on HDAC6 [1], the pIC50 is 4.01. As to `COc1ccc(-c2cc(O)no2)cc1` [Compound 16], the pIC50 on HDAC6 [1] is less than 3.52. With `CNC(=O)c1ccc(C(=O)NO)cc1` [CHEMBL2333343], in the data set with HDAC6 [2], the negative logarithm of the IC50 (pIC50) was 7.55.

As to `Oc1cc(-c2cccc(Br)c2)on1` [Compound 22], on HDAC6 [1], the pIC50 is 4.13. Still for that read-out and setting: next, `Cc1ccc(-c2cc(O)no2)s1` [Compound 24]: 4.66.

As to `Oc1cc(-c2ccc(Br)cn2)on1` [Compound 28], the pIC50 at HDAC6 [1] is 4.08. Consider `Oc1cc(-c2cccc3ccccc23)on1` [Compound 20], for which, at HDAC6 [1], the “HDAC6 activity” value is reported as “more than 55%” and the negative-log IC50 (pIC50) is less than 3.52.
